Legend:
[1] = test system: Zucker diabetic fatty (ZDF) rat; assay: Metabolic parameters of ZDF rats treated with LR-90 (Example 1); assay type: in vivo
Experimental: As noted, previous studies have shown that LR-90, a new inhibitor of AGE formation, prevented the development of experimental type 1 diabetic nephropathy. In the present Example, the effects of LR-90 were examined in the Zucker diabetic fatty (ZDF) rat, a model of type 2 diabetes and metabolic syndrome, and the mechanisms by which it may protect against renal injury were investigated. In this Example, male ZDF rats were treated without or with LR-90 from age 13 to 40 weeks. Metabolic and kidney functions and renal histology were evaluated. AGE accumulation and the production of the receptor for AGE (AGER) were measured. Profibrotic growth factors, extracellular matrix proteins and intracellular signalling pathways associated with glomerular and tubular damage were also analysed. […] RenalAGE, AGER and lipid peroxidation were all attenuated by LR-90. […] This was associated with reduction in glomerulosclerosis and tubulointerstitial fibrosis, concomitant with marked inhibition of renal overproduction of TGF-β1, connective tissue growth factor, fibronectin and collagen IV.
All animal studies were carried out in compliance with policies outlined in The Guide for the Care and Handling of Laboratory Animals (NIH Publication No. 85-23) that have been approved by the City of Hope Animal Care Committee. Male ZDF (fa/fa) and male Zucker lean (+/+; ZL) rats were obtained at the age of 5 weeks from Charles River Laboratories (Wilmington, Mass., USA). Animals were maintained with free access to Purina 5008 rat chow (Purina Mills, St Louis, Mo., USA) and tap water. All animals were individually housed in a controlled room with a 12 h dark-light cycle. At the age of 13 weeks, the animals were divided into the following groups: (1) ZL rats (n=6); (2) ZDF rats without treatment (n=6); and (3) ZDF rats treated with LR-90 at 50 mg/l in their drinking water (ZDF90, n=6). The dose of LR-90 was chosen after previous experiments with type 1 diabetic nephropathy. Food, water intake, body weight and blood glucose levels were monitored periodically. Systolic blood pressure was measured by tail-cuff plethysmography (CODA2 Blood Pressure System; Kent Scientific, Torrington, Conn., USA). Animals were killed at the age of 40 weeks by over-anaesthetisation with isoflurane and cardiac puncture. Blood samples were collected from each animal and transferred accordingly into heparinised vacutainer tubes; they were later centrifuged (1,500×g for 10 min at 4° C.) for plasma isolation. The kidneys were removed immediately, rinsed in PBS and weighed, after which specimens were snap-frozen in liquid nitrogen or fixed in 10% (vol./vol.) neutral buffered formalin for further biochemical and histological analyses. Plasma glucose, lipids and Nε-(carboxymethyl)lysine-AGE Plasma glucose was measured using a glucose analyzer (2300 STAT; YSI, Yellowsprings, Ohio, USA). Total plasma triacylglycerol and cholesterol concentrations were quantified using the Vitros 250 Chemistry System (Johnson & Johnson, Rochester, N.Y., USA). Nε-(Carboxymethyl)lysine (CML)-AGE was liberated from plasma proteins by acid hydrolysis and then measured by ion-pair reversed-phase liquid chromatography/tandem mass spectrometry as described previously.

[2] = test system: Zucker diabetic fatty (ZDF) rat; assay: Kidney histopathology: PAMS and Masson's trichrome staining; assay type: in vivo; details: kidney of ZDF rats, p<0.01 vs ZDF
From the text: Kidney sections were stained with periodic acid-Schiff-methenamine silver (PAMS) to evaluate glomerulosclerosis and mesangial matrix expansion; Masson's trichrome staining was used to analyse collagen deposition and cortical tubule degeneration. Glomerulosclerosis was defined as glomerular basement membrane thickening, mesangial hypertrophy and capillary occlusion, and was semiquantitatively evaluated on an arbitrary scale of 0 to 4: grade 0 (normal); grade 1 (sclerotic area less than 25%); grade 2 (sclerotic area 25-50%); grade 3 (sclerotic area 50-75%); and grade 4 (sclerotic area more than 75%). The glomerulosclerotic index was then calculated as described. Briefly, 100 glomeruli were randomly chosen from each rat kidney stained with PAMS and carefully scored for sclerosis by two blinded investigators. This was done in a sequential manner to ensure that the same glomerulus was not graded twice. To quantify for mesangial expansion and ECM accumulation in the mesangial areas, PAMS-positive materials in the mesangial region excluding cellular elements were analysed using an image analyser with a microscope (Olympus AX70; Olympus Optical, Hamburg, Germany) and photographed using a Retiga 2000R CCD camera (Qimaging, Surrey, BC, Canada). Twenty glomeruli, randomly selected from each rat were evaluated by two investigators without knowledge of the origin of the slides. The percentage of PAMS-positive area in each glomerulus was analysed using Image Pro Plus (Media Cybernetics, Silver Spring, Mass., USA). Results were expressed as percentage of areas positive for PAMS staining. To evaluate cortical tubule degeneration and collagen deposition, kidney sections were stained withMasson's trichrome. In each section, six fields of kidney cortex were randomly selected at 100× magnification using an Olympus AX70 microscope, photographed using a Retiga 2000R camera and the images analysed by Image Pro Plus. Blue and red colours indicate collagen and cytoplasm staining, respectively. Degenerate tubules in each field were identified by the absence of cytoplasm and results expressed as number of degenerate tubules per field. For quantitative measurement of collagen deposition, positively stained areas from six random regions in each slide were identified and scored by dividing the positively stained areas by the total tissue area in the same field using the colour separation function of Image Pro Plus. Results were expressed as percentage of area with positive staining.

[3] = ZDF rats, LR-90 50 mg/l in drinking water, at 40 weeks of age, mean ± SEM

CC(C)(Oc1ccc(NC(=O)Nc2ccc(Cc3ccc(NC(=O)Nc4ccc(OC(C)(C)C(=O)O)cc4)c(Cl)c3)cc2Cl)cc1)C(=O)O [LR-90, methylene bis[4,4′-(2-chlorophenylureidophenoxyisobutyric acid)]]
effect on blood pressure ([1]; ZDF rats, Example 1): modest, but not statistically significant effects
effect on hyperglycaemia ([1]; ZDF rats, Example 1): modest, but not statistically significant effects
Plasma Cholesterol [1, 3]: 6.3 ± 0.3 mmol/L
Plasma Triglycerides [1, 3]: 4.4 ± 0.6 mmol/L
Plasma glucose [1, 3]: 25.0 ± 2.3 mmol/L
Mean Systolic BP ([1]; ZDF rats, LR-90 50 mg/l in drinking water, at 40 weeks of age, tail-cuff, mean ± SEM): 144 ± 6 mm Hg
reduction of plasma cholesterol ([1]; vs untreated ZDF rats, p<0.05): ~30%
reduction of plasma triacylglycerol ([1]; vs untreated ZDF rats, p<0.05): ~55%
quantitative scoring for PAMS staining ([2]; FIG. 1c): reduced significantly
tubular degeneration ([2]; FIG. 1e): reduced significantly
percentage positive collagen area staining ([2]; FIG. 1f): reduced significantly
glomerulosclerosis index (GSI) ([2]; FIG. 1d): reduced significantly

From patent US8124655B2, “Use of LR-90 and LR-102 to overcome insulin resistance” (City of Hope, priority 2007, dated 2012)
